In data set [1] the target is T1, Chymotrypsinogen A (Bos taurus, UniProt P00766). Kind of data set: Compound was tested for the inhibition of Chymotrypsinogen.
In data set [2] the target is T2, Malate dehydrogenase, mitochondrial (Sus scrofa, UniProt P00346).
T2 sequence (P00346 whole entry): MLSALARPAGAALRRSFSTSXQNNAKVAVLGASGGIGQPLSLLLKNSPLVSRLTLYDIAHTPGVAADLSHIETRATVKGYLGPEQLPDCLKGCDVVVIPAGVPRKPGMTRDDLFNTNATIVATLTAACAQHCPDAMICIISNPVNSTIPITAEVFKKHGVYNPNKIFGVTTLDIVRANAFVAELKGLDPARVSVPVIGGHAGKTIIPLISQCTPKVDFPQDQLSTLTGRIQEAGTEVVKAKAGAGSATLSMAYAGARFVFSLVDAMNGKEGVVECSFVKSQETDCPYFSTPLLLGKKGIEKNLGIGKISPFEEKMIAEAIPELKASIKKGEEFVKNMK
Nature of the data set: Fold decrease in IC50 vs malate dehydrogenase (MDH) on pre-incubation; no change.

Data set [3] in a line: Mean maximal plasma concentration. In kind it is ADME, organism-based.
In data set [4] the target is T3, Beta-lactamase (Escherichia coli K-12, UniProt P00811). Kind of data set: Compound was tested for the inhibition of beta-lactamase.
T3 sequence (P00811 whole entry): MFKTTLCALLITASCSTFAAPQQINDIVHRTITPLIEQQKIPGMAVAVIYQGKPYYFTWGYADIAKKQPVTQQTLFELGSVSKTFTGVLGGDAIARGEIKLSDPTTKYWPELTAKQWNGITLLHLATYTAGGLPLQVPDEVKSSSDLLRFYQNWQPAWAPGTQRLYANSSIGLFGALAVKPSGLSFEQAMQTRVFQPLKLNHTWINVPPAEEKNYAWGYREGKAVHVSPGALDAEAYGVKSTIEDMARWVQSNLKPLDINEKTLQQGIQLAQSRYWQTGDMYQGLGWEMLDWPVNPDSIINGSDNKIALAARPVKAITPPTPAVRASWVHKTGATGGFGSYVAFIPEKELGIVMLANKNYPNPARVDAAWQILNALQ
Data set [5] can be described thus: Topical dosage on […] scabies. In kind it is functional.
The target in data set [6] is T1, Chymotrypsinogen A. Kind of data set: Fold decrease in IC50 vs chymotrypsinogen on pre-incubation; increase.
The target in data set [7] is Beta-lactamase (Escherichia coli K-12) (UniProt P00811). Kind of data set: Inhibition of beta-lactamase at 100 uM.
Beta-lactamase (Escherichia coli K-12), sequence (P00811 whole entry): as above
The target in data set [8] is Chymotrypsinogen A (Bos taurus) (UniProt P00766). Nature of the data set: Compound was tested for the inhibition of Chymotrypsinogen at 250 uM (Inhibition is time dependent).
In data set [9] the target is T4, Malate dehydrogenase, cytoplasmic (Homo sapiens) (UniProt P40925).
T4 sequence (whole entry): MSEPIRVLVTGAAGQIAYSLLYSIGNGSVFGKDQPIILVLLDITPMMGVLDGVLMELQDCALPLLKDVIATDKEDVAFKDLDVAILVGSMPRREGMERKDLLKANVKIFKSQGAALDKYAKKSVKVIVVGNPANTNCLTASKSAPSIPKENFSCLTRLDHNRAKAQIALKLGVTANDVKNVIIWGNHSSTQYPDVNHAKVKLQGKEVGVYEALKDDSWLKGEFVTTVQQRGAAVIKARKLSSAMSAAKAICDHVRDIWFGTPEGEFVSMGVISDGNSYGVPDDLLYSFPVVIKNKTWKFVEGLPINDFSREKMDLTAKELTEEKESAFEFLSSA
Nature of the data set: Inhibition of malate dehydrogenase (MDH) at 400 uM.

Data set [10] concerns the target T3, Beta-lactamase. Kind of data set: Effect of pre-incubation with enzyme on the inhibition of beta-lactamase:No inhibition.
Data set [11] addresses T3, Beta-lactamase. Nature of the data set: Effect of increase in enzyme concentration by 10 times on the inhibition of beta-lactamase by the compound:No inhibition.
The target in data set [12] is T3, Beta-lactamase. Kind of data set: Compound was tested for the inhibition beta-lactamase with 0.1 mg/ml saponin:No inhibition.
For data set [13], the target named is Chymotrypsinogen A (Bos taurus) (UniProt P00766). Nature of the data set: Compound was tested for the inhibition of Chymotrypsinogen at 400 uM.
In data set [14] the target is T2, Malate dehydrogenase, mitochondrial. Nature of the data set: Fold increase in IC50 vs malate dehydrogenase (MDH) with 1 mg/ml saponin; increase.

SMILES strings stand for the structures.

The term IC50 denotes the midpoint of a concentration-inhibition curve. The term Cmax denotes the peak of the concentration-time curve. As a reminder, the inhibition is the share of the control response that was lost under treatment.

For `COC(=O)C1=C(C)NC(C)=C(C(=O)OCCN(C)Cc2ccccc2)C1c1cccc([N+](=O)[O-])c1` (configuration not stated) [NICARDIPINE], the results for the IC50 (against Chymotrypsinogen A [1]; in data set [2]) were 175 µM and “Not Active”, respectively. Besides, the Cmax in data set [3] was determined as 0.184 µM.
Take `O=C(OCc1ccccc1)c1ccccc1` [BENZYL BENZOATE]: the half-maximal inhibitory concentration (IC50) worked out at 250 µM on Chymotrypsinogen A [1] and 90 µM at Beta-lactamase [4]. The compound also came in with a Topical dosage in data set [5] of 1.2 M.
Turning to `O=C(O)CCc1nc(-c2ccccc2)c(-c2ccccc2)o1` [OXAPROZIN], the IC50 on Chymotrypsinogen A [1] is 200 µM; on Chymotrypsinogen A [6] it was “Increase”; at Beta-lactamase [4] it was > 400 µM. For the same compound, the Cmax in data set [3] amounted to 372 µM.
For `CC(C)[N+](C)(CCOC(=O)C1c2ccccc2Oc2ccccc21)C(C)C`, the inhibition in data set [7] was < 5%; in data set [8], 96%; in data set [9], < 5%.
Turning to `OC(Cn1cncn1)(Cn1cncn1)c1ccc(F)cc1F` [FLUCONAZOLE], the IC50 entry against Beta-lactamase [10] is “Not Active”; at Chymotrypsinogen A [1] it was > 400 µM; against Beta-lactamase [11] it was “Not Active”; at Beta-lactamase [12], “Not Active”; at Beta-lactamase [4], > 400 µM.
On to `CC(=O)N1CCN(c2ccc(OCC3COC(Cn4ccnc4)(c4ccc(Cl)cc4Cl)O3)cc2)CC1` (configuration not stated) [KETOCONAZOLE], for which the half-inhibitory concentration (IC50) entry against Beta-lactamase [10] is “Not Active”; against Chymotrypsinogen A [1] it was > 150 µM; against Beta-lactamase [11] it was “Not Active”; at Beta-lactamase [12] it was “Not Active”; at Beta-lactamase [4], > 150 µM.
`Cc1cccc(Nc2ccccc2C(=O)O)c1C` [MEFENAMIC ACID] showed an inhibition in data set [13] of 41%. Further, the results for the IC50 (on Beta-lactamase [4]; in data set [14]) were 350 µM and “increase”, respectively. The Cmax in [3] came to 83 µM.

Values taken from ChEMBL document CHEMBL1145124, “Identification and prediction of promiscuous aggregating inhibitors among known drugs” (J Med Chem, 2003).
